In the NIST ThermoML archive (doi:10.1016/j.tca.2017.12.013):

Assay: molar heat capacity at constant pressure
Details: 101.33 kPa, DSC

[Ag+].[Ag+].[S-2] [silver sulfide]
Details	molar heat capacity at constant pressure [J/K/mol]
299.71 K, Crystal 3	73.92
300.71 K, Crystal 3	74.02
301.71 K, Crystal 3	74.12
302.71 K, Crystal 3	74.21
303.71 K, Crystal 3	74.31
304.71 K, Crystal 3	74.4
305.71 K, Crystal 3	74.46
306.71 K, Crystal 3	74.53
307.71 K, Crystal 3	74.62
308.71 K, Crystal 3	74.69
309.71 K, Crystal 3	74.77
310.71 K, Crystal 3	74.85
311.71 K, Crystal 3	74.92
312.71 K, Crystal 3	75.14
313.71 K, Crystal 3	75.21
314.71 K, Crystal 3	75.29
315.71 K, Crystal 3	75.36
316.71 K, Crystal 3	75.42
317.71 K, Crystal 3	75.49
318.71 K, Crystal 3	75.53
319.71 K, Crystal 3	75.58
320.71 K, Crystal 3	75.65
321.71 K, Crystal 3	75.71
322.71 K, Crystal 3	75.78
323.71 K, Crystal 3	75.84
324.71 K, Crystal 3	75.9
325.71 K, Crystal 3	75.97
326.71 K, Crystal 3	76.03
327.71 K, Crystal 3	76.09
328.71 K, Crystal 3	76.14
329.71 K, Crystal 3	76.2
330.71 K, Crystal 3	76.26
331.71 K, Crystal 3	76.31
332.71 K, Crystal 3	76.37
333.71 K, Crystal 3	76.42
334.71 K, Crystal 3	76.48
335.71 K, Crystal 3	76.53
336.71 K, Crystal 3	76.58
337.71 K, Crystal 3	76.63
338.71 K, Crystal 3	76.68
339.71 K, Crystal 3	76.74
340.71 K, Crystal 3	76.79
341.71 K, Crystal 3	76.84
342.71 K, Crystal 3	76.89
343.71 K, Crystal 3	76.93
344.71 K, Crystal 3	76.98
345.71 K, Crystal 3	77.03
346.71 K, Crystal 3	77.08
347.71 K, Crystal 3	77.13
348.71 K, Crystal 3	77.18
349.71 K, Crystal 3	77.22
350.71 K, Crystal 3	77.27
351.71 K, Crystal 3	77.32
352.71 K, Crystal 3	77.37
353.71 K, Crystal 3	77.42
354.71 K, Crystal 3	77.46
355.71 K, Crystal 3	77.51
356.71 K, Crystal 3	77.56
357.71 K, Crystal 3	77.61
358.71 K, Crystal 3	77.66
359.71 K, Crystal 3	77.71
360.71 K, Crystal 3	77.76
361.71 K, Crystal 3	77.81
362.71 K, Crystal 3	77.86
363.71 K, Crystal 3	77.91
364.71 K, Crystal 3	77.96
365.71 K, Crystal 3	78.01
366.71 K, Crystal 3	78.07
367.71 K, Crystal 3	78.12
368.71 K, Crystal 3	78.17
369.71 K, Crystal 3	78.23
370.71 K, Crystal 3	78.29
371.71 K, Crystal 3	78.34
372.71 K, Crystal 3	78.4
373.71 K, Crystal 3	78.46
374.71 K, Crystal 3	78.52
375.71 K, Crystal 3	78.58
376.71 K, Crystal 3	78.64
377.71 K, Crystal 3	78.7
378.71 K, Crystal 3	78.76
379.71 K, Crystal 3	78.83
380.71 K, Crystal 3	78.89
381.71 K, Crystal 3	78.96
382.71 K, Crystal 3	79.03
383.71 K, Crystal 3	79.1
384.71 K, Crystal 3	79.17
385.71 K, Crystal 3	79.24
386.71 K, Crystal 3	79.31
387.71 K, Crystal 3	79.39
388.71 K, Crystal 3	79.46
389.71 K, Crystal 3	79.54
390.71 K, Crystal 3	79.62
391.71 K, Crystal 3	79.7
392.71 K, Crystal 3	79.79
393.71 K, Crystal 3	79.87
394.71 K, Crystal 3	79.96
395.71 K, Crystal 3	80.04
396.71 K, Crystal 3	80.13
397.71 K, Crystal 3	80.23
398.71 K, Crystal 3	80.32
399.71 K, Crystal 3	80.41
400.71 K, Crystal 3	80.5
401.71 K, Crystal 3	80.6
402.71 K, Crystal 3	80.69
403.71 K, Crystal 3	80.78
404.71 K, Crystal 3	80.88
405.71 K, Crystal 3	80.98
406.71 K, Crystal 3	81.09
407.71 K, Crystal 3	81.19
408.71 K, Crystal 3	81.3
409.71 K, Crystal 3	81.41
410.71 K, Crystal 3	81.52
411.71 K, Crystal 3	81.63
412.71 K, Crystal 3	81.75
413.71 K, Crystal 3	81.87
414.71 K, Crystal 3	81.99
415.71 K, Crystal 3	82.11
416.71 K, Crystal 3	82.24
417.71 K, Crystal 3	82.37
418.71 K, Crystal 3	82.5
419.71 K, Crystal 3	82.64
420.71 K, Crystal 3	82.77
421.71 K, Crystal 3	82.91
422.71 K, Crystal 3	83.06
423.71 K, Crystal 3	83.2
424.71 K, Crystal 3	83.35
425.71 K, Crystal 3	83.51
426.71 K, Crystal 3	83.66
427.71 K, Crystal 3	83.82
428.71 K, Crystal 3	83.98
429.71 K, Crystal 3	84.15
430.71 K, Crystal 3	84.32
431.71 K, Crystal 3	84.49
432.71 K, Crystal 3	84.66
433.71 K, Crystal 3	84.84
434.71 K, Crystal 3	85.01
435.71 K, Crystal 3	85.19
436.71 K, Crystal 3	85.36
437.71 K, Crystal 3	85.54
438.71 K, Crystal 3	85.72
439.71 K, Crystal 3	85.91
440.71 K, Crystal 3	86.2
441.71 K, Crystal 3	86.6
442.71 K, Crystal 3	87.1
443.71 K, Crystal 3	87.6
444.71 K, Crystal 3	88.38
446.71 K, Crystal 3	90.5
447.71 K, Crystal 3	92.95
448.71 K, Crystal 3	93.65
449.71 K, Crystal 3	94.94
461.57 K, Crystal 2	90.56
462.57 K, Crystal 2	90.49
463.57 K, Crystal 2	90.42
464.57 K, Crystal 2	90.35
465.57 K, Crystal 2	90.28
466.57 K, Crystal 2	90.21
467.57 K, Crystal 2	90.13
468.57 K, Crystal 2	90.06
469.57 K, Crystal 2	89.98
470.57 K, Crystal 2	89.9
471.57 K, Crystal 2	89.82
472.57 K, Crystal 2	89.75
473.57 K, Crystal 2	89.67
474.57 K, Crystal 2	89.59
475.57 K, Crystal 2	89.51
476.57 K, Crystal 2	89.43
477.57 K, Crystal 2	89.35
478.57 K, Crystal 2	89.28
479.57 K, Crystal 2	89.2
480.57 K, Crystal 2	89.12
481.57 K, Crystal 2	89.05
482.57 K, Crystal 2	88.97
483.57 K, Crystal 2	88.9
484.57 K, Crystal 2	88.83
485.57 K, Crystal 2	88.76
486.57 K, Crystal 2	88.69
487.57 K, Crystal 2	88.62
488.57 K, Crystal 2	88.55
489.57 K, Crystal 2	88.48
490.57 K, Crystal 2	88.42
491.57 K, Crystal 2	88.35
492.57 K, Crystal 2	88.29
493.57 K, Crystal 2	88.23
494.57 K, Crystal 2	88.17
495.57 K, Crystal 2	88.11
496.57 K, Crystal 2	88.06
497.57 K, Crystal 2	88
498.57 K, Crystal 2	87.95
499.57 K, Crystal 2	87.9
500.57 K, Crystal 2	87.85
501.57 K, Crystal 2	87.8
502.57 K, Crystal 2	87.76
503.57 K, Crystal 2	87.71
504.57 K, Crystal 2	87.67
505.57 K, Crystal 2	87.62
506.57 K, Crystal 2	87.58
507.57 K, Crystal 2	87.54
508.57 K, Crystal 2	87.54
509.57 K, Crystal 2	87.54
510.57 K, Crystal 2	87.54
511.57 K, Crystal 2	87.57
512.57 K, Crystal 2	87.59
513.57 K, Crystal 2	87.61
514.57 K, Crystal 2	87.61
515.57 K, Crystal 2	87.61
516.57 K, Crystal 2	87.62
517.57 K, Crystal 2	87.62
518.57 K, Crystal 2	87.62
519.57 K, Crystal 2	87.64
520.57 K, Crystal 2	87.64
521.82 K, Crystal 2	87.58
522.82 K, Crystal 2	87.56
523.82 K, Crystal 2	87.54
524.82 K, Crystal 2	87.52
525.82 K, Crystal 2	87.5
526.82 K, Crystal 2	87.48
527.82 K, Crystal 2	87.46
528.82 K, Crystal 2	87.45
529.82 K, Crystal 2	87.43
530.82 K, Crystal 2	87.42
531.82 K, Crystal 2	87.4
532.82 K, Crystal 2	87.39
533.82 K, Crystal 2	87.38
534.82 K, Crystal 2	87.37
535.82 K, Crystal 2	87.36
536.82 K, Crystal 2	87.35
537.82 K, Crystal 2	87.34
538.82 K, Crystal 2	87.33
539.82 K, Crystal 2	87.32
540.82 K, Crystal 2	87.31
541.82 K, Crystal 2	87.3
542.82 K, Crystal 2	87.29
543.82 K, Crystal 2	87.28
544.82 K, Crystal 2	87.27
545.82 K, Crystal 2	87.26
546.82 K, Crystal 2	87.26
547.82 K, Crystal 2	87.25
548.82 K, Crystal 2	87.24
549.82 K, Crystal 2	87.23
550.82 K, Crystal 2	87.22
551.82 K, Crystal 2	87.22
552.82 K, Crystal 2	87.21
553.82 K, Crystal 2	87.2
554.82 K, Crystal 2	87.19
555.82 K, Crystal 2	87.18
556.82 K, Crystal 2	87.17
557.82 K, Crystal 2	87.17
558.82 K, Crystal 2	87.16
559.82 K, Crystal 2	87.15
560.82 K, Crystal 2	87.14
561.82 K, Crystal 2	87.13
562.82 K, Crystal 2	87.12
563.82 K, Crystal 2	87.11
564.82 K, Crystal 2	87.1
565.82 K, Crystal 2	87.09
566.82 K, Crystal 2	87.07
567.82 K, Crystal 2	87.06
568.82 K, Crystal 2	87.05
569.82 K, Crystal 2	87.04
570.82 K, Crystal 2	87.02
571.82 K, Crystal 2	87.01
572.82 K, Crystal 2	87
573.82 K, Crystal 2	86.98
574.82 K, Crystal 2	86.97
575.82 K, Crystal 2	86.95
576.82 K, Crystal 2	86.94
577.82 K, Crystal 2	86.92
578.82 K, Crystal 2	86.91
579.82 K, Crystal 2	86.89
580.82 K, Crystal 2	86.87
581.82 K, Crystal 2	86.85
582.82 K, Crystal 2	86.83
583.82 K, Crystal 2	86.82
584.82 K, Crystal 2	86.8
585.82 K, Crystal 2	86.78
586.82 K, Crystal 2	86.76
587.82 K, Crystal 2	86.74
588.82 K, Crystal 2	86.72
589.82 K, Crystal 2	86.7
590.82 K, Crystal 2	86.67
591.82 K, Crystal 2	86.65
592.82 K, Crystal 2	86.63
593.82 K, Crystal 2	86.61
594.82 K, Crystal 2	86.61
595.82 K, Crystal 2	86.63
596.82 K, Crystal 2	86.62
597.82 K, Crystal 2	86.62
598.82 K, Crystal 2	86.6
599.82 K, Crystal 2	86.6
600.82 K, Crystal 2	86.58
601.82 K, Crystal 2	86.55
602.82 K, Crystal 2	86.53
603.82 K, Crystal 2	86.5
604.82 K, Crystal 2	86.48
605.82 K, Crystal 2	86.45
606.82 K, Crystal 2	86.43
607.82 K, Crystal 2	86.4
608.82 K, Crystal 2	86.38
609.82 K, Crystal 2	86.35
610.82 K, Crystal 2	86.33
611.82 K, Crystal 2	86.3
612.82 K, Crystal 2	86.28
613.82 K, Crystal 2	86.25
614.82 K, Crystal 2	86.23
615.82 K, Crystal 2	86.2
616.82 K, Crystal 2	86.18
